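Grown in 96-well plates, cells were treated for 48 hours with each compound at five concentrations. Insufficient inhibition: endpoint recorded as highest concentration tested. GI50 = concentration required for 50% inhibition of growth.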 Calls of active or inactive are those of the source. No stated cut-off is given here; in the data, active = GI50 up to about 1.1 µM and inactive = higher.
Legend:
Assay in all cases: NCI tumour cell line growth inhibition, 48 h
786-0 = tested on: 786-0
A498 = tested on: A498
A549 = tested on: A549
ACHN = tested on: ACHN
BT-549 = tested on: BT-549
CAKI-1 = tested on: CAKI-1
CCRF-CEM = tested on: CCRF-CEM
COLO 205 = tested on: COLO 205
DU-145 = tested on: DU-145
EKVX = tested on: EKVX
HCC 2998 = tested on: HCC 2998
HCT-116 = tested on: HCT-116
HCT-15 = tested on: HCT-15
HL-60 = tested on: HL-60
HOP-62 = tested on: HOP-62
HOP-92 = tested on: HOP-92
HT-29 = tested on: HT-29
Hs-578T = tested on: Hs-578T
IGROV-1 = tested on: IGROV-1
K562 = tested on: K562
KM12 = tested on: KM12
LOX IMVI = tested on: LOX IMVI
M14 = tested on: M14
MCF7 = tested on: MCF7
MDA-MB-231 = tested on: MDA-MB-231
MDA-MB-435 = tested on: MDA-MB-435
MDA-N = tested on: MDA-N
MOLT-4 = tested on: MOLT-4
Malme-3M = tested on: Malme-3M
NCI-H226 = tested on: NCI-H226
NCI-H23 = tested on: NCI-H23
NCI-H460 = tested on: NCI-H460
NCI-H522 = tested on: NCI-H522
NCI/ADR-RES = tested on: NCI/ADR-RES
OVCAR-3 = tested on: OVCAR-3
OVCAR-4 = tested on: OVCAR-4
OVCAR-5 = tested on: OVCAR-5
OVCAR-8 = tested on: OVCAR-8
PC-3 = tested on: PC-3
RPMI-8226 = tested on: RPMI-8226
RXF 393 = tested on: RXF 393
SF-268 = tested on: SF-268
SF-295 = tested on: SF-295
SF-539 = tested on: SF-539
SK-MEL-28 = tested on: SK-MEL-28
SK-MEL-2 = tested on: SK-MEL-2
SK-OV-3 = tested on: SK-OV-3
SN12C = tested on: SN12C
SNB-19 = tested on: SNB-19
SW-620 = tested on: SW-620
T47D = tested on: T47D
TK-10 = tested on: TK-10
U-251 = tested on: U-251
UACC-257 = tested on: UACC-257
UACC-62 = tested on: UACC-62
SK-MEL-5 = tested on: SK-MEL-5
SNB-75 = tested on: SNB-75
SR = tested on: SR
UO-31 = tested on: UO-31

Measured: GI50

COc1ccccc1OCC(=N/NC(=O)c1ccncc1)/N=C/c1ccncc1
> 100 µM: HCT-15
inactive: 786-0 > 100 µM | A498 > 100 µM | A549 > 100 µM | ACHN > 100 µM | BT-549 > 100 µM | CAKI-1 > 100 µM | CCRF-CEM > 100 µM | COLO 205 > 100 µM | DU-145 > 100 µM | EKVX > 100 µM | HCC 2998 > 100 µM | HCT-116 > 100 µM | HL-60 > 100 µM | HOP-62 > 100 µM | HOP-92 44 µM | HT-29 > 100 µM | Hs-578T > 100 µM | IGROV-1 > 100 µM | K562 > 100 µM | KM12 > 100 µM | LOX IMVI > 100 µM | M14 > 100 µM | MCF7 > 100 µM | MDA-MB-231 > 100 µM | MDA-MB-435 > 100 µM | MDA-N > 100 µM | MOLT-4 > 100 µM | Malme-3M > 100 µM | NCI-H226 > 100 µM | NCI-H23 > 100 µM | NCI-H460 > 100 µM | NCI-H522 > 100 µM | NCI/ADR-RES > 100 µM | OVCAR-3 > 100 µM | OVCAR-4 > 100 µM | OVCAR-5 > 100 µM | OVCAR-8 > 100 µM | PC-3 > 100 µM | RPMI-8226 > 100 µM | RXF 393 > 100 µM | SF-268 > 100 µM | SF-295 > 100 µM | SF-539 > 100 µM | SK-MEL-28 > 100 µM | SK-MEL-2 > 100 µM | SK-OV-3 > 100 µM | SN12C > 100 µM | SNB-19 > 100 µM | SW-620 > 100 µM | T47D > 100 µM | TK-10 > 100 µM | U-251 > 100 µM | UACC-257 > 100 µM | UACC-62 > 100 µM

C1=C[C@@H]2c3ccc4cnccc4c3NC[C@@H]2C1
> 100 µM: HCT-15
inactive: 786-0 > 100 µM | A498 33.6 µM | A549 > 100 µM | ACHN > 100 µM | BT-549 > 100 µM | CCRF-CEM > 100 µM | COLO 205 > 100 µM | DU-145 > 100 µM | EKVX 16.8 µM | HCC 2998 > 100 µM | HCT-116 > 100 µM | HL-60 > 100 µM | HOP-62 > 100 µM | HOP-92 75.2 µM | Hs-578T 46.8 µM | IGROV-1 > 100 µM | K562 > 100 µM | KM12 86.3 µM | M14 > 100 µM | MCF7 > 100 µM | MDA-MB-435 > 100 µM | MDA-N > 100 µM | MOLT-4 > 100 µM | Malme-3M > 100 µM | NCI-H226 > 100 µM | NCI-H23 > 100 µM | NCI-H460 > 100 µM | NCI/ADR-RES > 100 µM | OVCAR-3 > 100 µM | OVCAR-5 > 100 µM | OVCAR-8 > 100 µM | PC-3 > 100 µM | RPMI-8226 > 100 µM | RXF 393 > 100 µM | SF-268 > 100 µM | SF-295 > 100 µM | SF-539 > 100 µM | SK-MEL-28 > 100 µM | SK-MEL-5 > 100 µM | SK-OV-3 > 100 µM | SN12C > 100 µM | SNB-19 > 100 µM | SNB-75 > 100 µM | SR > 100 µM | SW-620 > 100 µM | T47D > 100 µM | TK-10 > 100 µM | U-251 > 100 µM | UACC-257 > 100 µM | UACC-62 58.2 µM | UO-31 74.3 µM
